Source: patent US12410472B2, “Method for evaluating the eye irritation potential of chemicals” (IMMUNOSEARCH, priority 2016, dated 2025)
Structures can show the parent of a compound that is named as a salt. Where two headings read alike, the source gives them in different places. Blank lines part the entries; values can stand above or below the compound they belong to.

What was measured:
[1] = system: reconstructed human corneal epithelium model (SkinEthic™ HCE)
Text: The reconstructed human corneal epithelium model, (SkinEthic™ HCE) was purchased from Episkin in Lyon. The model consists of immortalized human corneal epithelial cells grown in a defined medium at the air-liquid interface. The tissue structure obtained is a multi-layer epithelium similar to the natural tissue structure of the human cornea, comprising 5-7 layers with a surface area of 0.5 cm^2.
Polyhedral cells and wing cells are also present. The tissue also comprises specific ultrastructures such as intermediate filaments, mature hemidesmosomes and desmosomes. […] The tissues are shipped on a semi-solid layer of agarose culture medium. Upon receipt, the tissues are transferred to maintenance medium (1 ml/well) in 6-well plates and incubated in a climatic chamber at 37° C., 5% CO2. The tissues are used 24 hours later.
The procedure for applying solid (powdered) products to the tissues was optimized as follows. First, the products are reduced to the finest possible powder with a mortar. The chemicals are tested at a single dose. In summary, the tissue surface is moistened by adding 20 μl of PBS at 37° C. and incubation for 10 min at 37° C./5% CO2. The corneal epithelia are then treated topically with 30±2 mg (representing 60 mg/cm2) and incubated for 30 min at room temperature. The tissues are then washed with sterile PBS (2×25 ml) at 37° C. PBS is applied to the edge of the insert (not directly on the tissue) to create a gentle vortex that removes the chemical. The tissues on their inserts are then “embedded” in 5 ml of maintenance medium at room temperature for 30 minutes in order to remove as much as possible of the product remaining on the tissue surface. The medium is then removed by gently tapping the insert on absorbent paper, and 50 μl of maintenance medium at 37° C. is added. The inserts are then incubated for 6 h at 37° C./5% CO2.
In summary, corneal tissues are recovered with forceps and placed in tubes for rapid freezing in liquid nitrogen. The RNA is then extracted by the QIAzol technique (Qiagen, Courtaboeuf, France) with an “RNeasy Mini Kit” according to the manufacturer's instructions. In summary, the tissues are placed in 1 ml of QIAzol and homogenized using the TissueLyser II (Qiagen, Courtaboeuf, France) with 2 steel beads. After centrifugation, the supernatant is collected and 0.2 ml of bromochloro propane (Sigma, France) is added, then the whole is vigorously mixed. The homogenate is centrifuged at 12,000 g for 15 min at 4° C. The upper phase (aqueous phase) is added to 600 μl of 70% ethanol and immediately mixed by pipetting. The mixture is transferred to an RNeasy spin column placed on a 2 ml collection tube and the RNA is collected according to the manufacturer's instructions (Qiagen, Courtaboeuf, France).
In summary, the transcription of total RNA is performed with 1 μg of total RNA in a final volume of 20 μl using “Random Primers” (Invitrogen, France) and “SuperScript III Reverse Transcriptase” (Invitrogen, France) according to the manufacturer's instructions. Quantitative RT-PCR uses a PCR reagent mix: SYBR Green Real-Time PCR Master Mix (ROCHE, France) with 0.4 μM of each nucleotide primer in a final volume of 25 μl. The reaction is performed in an LC480 System (ROCHE, France). The amplification program comprises a cycle at 95° C. for 1 min, followed by 40 cycles with denaturation at 95° C. for 15 s, a hybridization and amplification phase at 60° C. for 15 s, followed by a final elongation phase at 72° C. for 40 s.
The relative amount of each transcript is normalized to the average amount of expression of 5 so-called housekeeping genes (Glucuronidase β-GUSB, vacuolar ATPase-ATP6V0E1, H2A Histone Family, Member Y-H2AFY, Glucose-6-Phosphate Dehydrogenase-G6PD and “non-POU domain-containing, octamer-binding”-NONO).
The gene expression rate is measured by an absolute quantification analysis method using an algorithm based on the maximum of the second derivative developed by Roche.

eye = settings: cited from earlier work
[2] = classification from the Solid Irritation Index
[3] = solid product applied pure in powder form, 30±2 mg, first of three index values
[4] = solid product applied pure in powder form, 30±2 mg, second of three index values
[5] = solid product applied pure in powder form, 30±2 mg, third of three index values
[6] = Table 6, list of solid chemicals studied
[7] = control chemicals and chemicals of FIG. 1 and FIG. 2

Compound: O=C(Nc1ccc(Cl)cc1)Nc1ccc(Cl)c(Cl)c1 [1-(4-Chlorophenyl)-3-(3,4-dichlorophenyl) urea]
- EIT prediction [1, 2]: No Cat
- Irritation INDEX [1, 3]: 0
- Irritation INDEX [1, 4]: 0
- Irritation INDEX [1, 5]: 1
- UN-GHS (eye; Draize test classification): No Cat
- GHS Class (eye; [6]): No cat

Compound: O=C([O-])C(=O)[O-].[Na+].[Na+] [Sodium oxalate]
- EIT prediction [1]: Cat 1
- UN-GHS (eye; Draize test classification): Cat 1
- GHS Class (eye; [6]): Cat 1
- eye irritation category as stated in text and figure legends (eye; [7]): category 1

- EIT prediction [1]: No Cat
Compound: CCCCCCCCCCCCCCOC(=O)CCCCCCCCCCCCC [Tetradecyl tetradecanoate]
- eye irritation category as stated in text and figure legends (eye; [7]): No category

- EIT prediction ([1]; human, 30 min, 60 mg/cm2): Cat 1
Compound: CC(C)(O)C(=O)O [alpha-Hydroxyisobutyric acid]
- eye irritation category as stated in text and figure legends (eye; [7]): category 1

Compound: CCOc1ccc(Br)cc1 [4-Bromophenetol]
- EIT prediction [1, 2]: No Cat
- Irritation INDEX [1, 3]: 2
- Irritation INDEX [1, 4]: 2
- Irritation INDEX [1, 5]: 3
- UN-GHS (eye; Draize test classification): No Cat
- GHS Class (eye; [6]): No cat
- eye irritation category as stated in text and figure legends (eye; [7]): No category

- EIT prediction ([1]; human, 30 min, 60 mg/cm2): Cat 1
Compound: CC(CN1c2ccccc2Sc2ccccc21)N(C)C (centres unmarked) [Promethazine hydrochloride]
- UN-GHS (eye; Draize test classification): Cat 1
- GHS Class (eye; [6]): Cat 1
- eye irritation category as stated in text and figure legends (eye; [7]): category 1

- EIT prediction [1]: No Cat
Compound: CC(C)(C)c1cc(Cc2cc(C(C)(C)C)c(O)c(C(C)(C)C)c2)cc(C(C)(C)C)c1O [4,4′-Methylene bis-(2,6-di-tert-butylphenol)]
- UN-GHS (eye; Draize test classification): No Cat
- GHS Class (eye; [6]): No cat
- eye irritation category as stated in text and figure legends (eye; [7]): No category

Compound: F[B-](F)(F)F.[K+] [Potassium tetrafluoroborate]
- EIT prediction [1, 2]: No Cat
- Irritation INDEX [1, 3]: 4
- Irritation INDEX [1, 4]: 6
- Irritation INDEX [1, 5]: 2
- UN-GHS (eye; Draize test classification): No Cat
- GHS Class (eye; [6]): No cat
- eye irritation category as stated in text and figure legends (eye; [7]): No category

Compound: CC(C)(O)CCC(C)(C)O
- EIT prediction [1, 2]: Cat 1
- Irritation INDEX [1, 3]: 22
- Irritation INDEX [1, 4]: 23
- Irritation INDEX [1, 5]: 21
- UN-GHS (eye; Draize test classification): Cat 1
- GHS Class (eye; [6]): Cat 1
- eye irritation category as stated in text and figure legends (eye; [7]): category 1

Compound: Cc1cc(C)nc(Nc2ccccc2)n1 [2-Anilino-4,6-dimethylpyrimidine]
- EIT prediction [1]: No Cat
- Irritation INDEX ([1]; human, 30 min, 60 mg/cm2): 0
- GHS Class (eye; rabbit, in vivo): No cat
- UN-GHS (eye; rabbit, in vivo): No Cat
- eye irritation category as stated in text and figure legends (eye; rabbit, in vivo): No category

Compound: CC(C)(C)CC(C)(C)c1cc(Cc2cc(C(C)(C)CC(C)(C)C)cc(-n3nc4ccccc4n3)c2O)c(O)c(-n2nc3ccccc3n2)c1 [Methylene bis-benzotriazolyl tetramethylbutyl phenol]
- EIT prediction [1]: No Cat
- UN-GHS (eye; Draize test classification): No Cat
